20 compounds from patent publication US11084800B2 (Achillion Pharmaceuticals, Inc., priority 2017, dated 2021) can be followed below.

pIC50: −log10 of the molar value.

The target of one experiment is Human Factor D (Homo sapiens (Human), UniProt P00746). Put plainly: Human Factor D Assay. It is filed as biochemical. Particulars: Factor D inhibition, assay of Example 10; read-out: IC5 (Stars). The method in brief: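 Serum-purified Factor D (80 nM final) preincubated 5 min at room temperature with compound in 50 mM Tris, 1 M NaCl, pH 7.5. Z-L-Lys-SBz and DTNB added at 100 μM each; A405 followed every 30 s for 30 min. IC50 from nonlinear regression of rates versus concentration.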
Chain of Human Factor D (P00746 26-253): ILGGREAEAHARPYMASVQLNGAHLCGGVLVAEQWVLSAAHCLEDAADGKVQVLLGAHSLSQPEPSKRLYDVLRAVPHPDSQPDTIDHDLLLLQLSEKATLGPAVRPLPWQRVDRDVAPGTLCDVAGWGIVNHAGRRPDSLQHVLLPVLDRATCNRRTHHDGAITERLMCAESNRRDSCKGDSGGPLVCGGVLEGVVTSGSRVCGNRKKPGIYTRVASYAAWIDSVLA
Regarding `CC(=O)c1nn(CC(=O)N2[C@H](C(=O)Nc3nc(Br)ccc3CN3CCC(C)(F)CC3)C[C@@]3(C)C[C@@H]23)c2ccc(-c3cnc(C)nc3)cc12` [Compound 322, (1R,3S,5R)-2-(2-(3-acetyl-5-(2-methylpyrimidin-5-yl)-1H-indazol-1-yl)acetyl)-N-(6-bromo-3-((4-fluoro-4-methylpiperidin-1-yl)methyl)pyridin-2-yl)-5-methyl-2-azabicyclo[3.1.0]hexane-3-carboxamide], the pIC50 was above 6.00.

As to `CC(=O)c1nn(CC(=O)N2[C@H](C(=O)Nc3nc(Br)ccc3C)C[C@@]3(CN(C)C)C[C@@H]23)c2c(C(F)CF)cc(-c3cnc(C)nc3)cc12` (stereo partly drawn) [Compound 325, (1R,3S,5R)-2-(2-(3-acetyl-7-(1,2-difluoroethyl)-5-(2-methylpyrimidin-5-yl)-1H-indazol-1-yl)acetyl)-N-(6-bromo-3-methylpyridin-2-yl)-5-((dimethylamino)methyl)-2-azabicyclo[3.1.0]hexane-3-carboxamide], the pIC50 was above 6.00.

Regarding `CC(=O)c1nn(CC(=O)N2[C@H](C(=O)Nc3nc(Br)ccc3C)C[C@@]3(CCC(F)F)C[C@@H]23)c2cnc(-c3cnc(C)nc3)cc12` [Compound 327], the pIC50 is above 6.00.

On to `CC(=O)c1nn(CC(=O)N2[C@H](C(=O)Nc3nc(Br)ccc3C)C[C@@]3(C)C[C@@H]23)c2ccc(-c3cnc(C)nc3C)cc12` [Compound 331, (1R,3S,5R)-2-(2-(3-acetyl-5-(2,4-dimethylpyrimidin-5-yl)-1H-indazol-1-yl)acetyl)-N-(6-bromo-3-methylpyridin-2-yl)-5-methyl-2-azabicyclo[3.1.0]hexane-3-carboxamide], for which the pIC50 is above 6.00.

Consider `CC(=O)c1nn(CC(=O)N2[C@H](C(=O)Nc3nc(Br)ccc3C)C[C@@]3(c4cc(C(C)C)no4)C[C@@H]23)c2ccc(-c3cnc(C)nc3)cc12` [Compound 333, (1R,3S,5S)-2-(2-(3-acetyl-5-(2-methylpyrimidin-5-yl)-1H-indazol-1-yl)acetyl)-N-(6-bromo-3-methylpyridin-2-yl)-5-(3-isopropylisoxazol-5-yl)-2-azabicyclo[3.1.0]hexane-3-carboxamide], for which the pIC50 is above 6.00.

With `CC(=O)c1nn(CC(=O)N2[C@H](C(=O)Nc3nc(Br)ccc3C)C[C@@]3(Cc4nc(C(C)(C)C)cs4)C[C@@H]23)c2ccc(-c3cnc(C)nc3)cc12` [Compound 338, (1R,3S,5R)-2-{2-[3-Acetyl-5-(2-methylpyrimidin-5-yl)indazol-1-yl]acetyl}-N-(6-bromo-3-methylpyridin-2-yl)-5-[(4-tert-butyl-1,3-thiazol-2-yl)methyl]-2-azabicyclo[3.1.0]hexane-3-carboxamide], the pIC50 is above 6.00.

As to `CCc1csc(C[C@@]23C[C@@H](C(=O)Nc4nc(Br)ccc4C)N(C(=O)Cn4nc(C(C)=O)c5cc(-c6cnc(C)nc6)ccc54)[C@@H]2C3)n1` [Compound 339, (1R,3S,5R)-2-(2-(3-acetyl-5-(2-methylpyrimidin-5-yl)-1H-indazol-1-yl)acetyl)-N-(6-bromo-3-methylpyridin-2-yl)-5-((4-ethylthiazol-2-yl)methyl)-2-azabicyclo[3.1.0]hexane-3-carboxamide], the pIC50 was above 6.00.

Take `CC(=O)c1nn(CC(=O)N2[C@H](C(=O)Nc3nc(Br)ccc3C)C[C@@]3(CNCCCF)C[C@@H]23)c2c(C)cc(-c3cnc(C)nc3)cc12` [Compound 342, (1R,3S,5R)-2-(2-(3-acetyl-7-methyl-5-(2-methylpyrimidin-5-yl)-1H-indazol-1-yl)acetyl)-N-(6-bromo-3-methylpyridin-2-yl)-5-(((3-fluoropropyl)amino)methyl)-2-azabicyclo[3.1.0]hexane-3-carboxamide]: the pIC50 is above 6.00.

As for `CC(=O)c1nn(CC(=O)N2[C@H](C(=O)Nc3nc(Br)ccc3C)C[C@@]3(CN4CC5(CCC5)C4)C[C@@H]23)c2c(C)nc(-c3cnc(C)nc3)cc12` [Compound 344, (1R,3S,5R)-5-(2-azaspiro[3.3]heptan-2-ylmethyl)-2-(2-(3-acetyl-7-methyl-5-(2-methylpyrimidin-5-yl)-1H-pyrazolo[3,4-c]pyridin-1-yl)acetyl)-N-(6-bromo-3-methylpyridin-2-yl)-2-azabicyclo[3.1.0]hexane-3-carboxamide], the pIC50 is above 6.00.

Take `CC(=O)c1nn(CC(=O)N2[C@H](C(=O)Nc3nc(Br)ccc3C)C[C@@]3(CCCN(C)C)C[C@@H]23)c2c(CF)cc(-c3cnc(C)nc3)cc12` [Compound 345, (1R,3S,5R)-2-(2-(3-acetyl-7-(fluoromethyl)-5-(2-methylpyrimidin-5-yl)-1H-indazol-1-yl)acetyl)-N-(6-bromo-3-methylpyridin-2-yl)-5-(3-(dimethylamino)propyl)-2-azabicyclo[3.1.0]hexane-3-carboxamide]: the pIC50 is above 6.00.

For `CC(=O)c1nn(CC(=O)N2[C@H](C(=O)Nc3nc(Br)ccc3C)C[C@@]3(Cc4ncc(C(C)C)s4)C[C@@H]23)c2ccc(-c3cnc(C)nc3)cc12` [Compound 349, (1R,3S,5R)-2-(2-(3-acetyl-5-(2-methylpyrimidin-5-yl)-1H-indazol-1-yl)acetyl)-N-(6-bromo-3-methylpyridin-2-yl)-5-((5-isopropylthiazol-2-yl)methyl)-2-azabicyclo[3.1.0]hexane-3-carboxamide], the pIC50 is above 6.00.

Regarding `CC(=O)c1nn(CC(=O)N2[C@H](C(=O)Nc3nc(Br)ccc3C)C[C@@]3(CN4CC(C)(C)C4)C[C@@H]23)c2c(C)cc(-c3cnc(C)nc3)cc12` [Compound 350], the pIC50 was above 6.00.

Regarding `CC(=O)c1nn(CC(=O)N2[C@H](C(=O)Nc3nc(Br)ccc3C)C[C@@]3(CN4CCCC4)C[C@@H]23)c2c(CF)cc(-c3cnc(C)nc3)cc12` [Compound 351, (1R,3S,5R)-2-(2-(3-acetyl-7-(fluoromethyl)-5-(2-methylpyrimidin-5-yl)-1H-indazol-1-yl)acetyl)-N-(6-bromo-3-methylpyridin-2-yl)-5-(pyrrolidin-1-ylmethyl)-2-azabicyclo[3.1.0]hexane-3-carboxamide], the pIC50 was above 6.00.

Regarding `CC(=O)c1nn(CC(=O)N2[C@H](C(=O)Nc3nc(Br)ccc3C)C[C@@]3(CN4CCC4)C[C@@H]23)c2c(CF)cc(-c3cnc(C)nc3)cc12` [Compound 353, (1R,3S,5R)-2-(2-(3-acetyl-7-(fluoromethyl)-5-(2-methylpyrimidin-5-yl)-1H-indazol-1-yl)acetyl)-5-(azetidin-1-ylmethyl)-N-(6-bromo-3-methylpyridin-2-yl)-2-azabicyclo[3.1.0]hexane-3-carboxamide], the pIC50 was above 6.00.

Consider `CC(=O)c1nn(CC(=O)N2[C@H](C(=O)Nc3nc(Br)ccc3C)C[C@@]3(CN4CC5(CCC5)C4)C[C@@H]23)c2c(CF)cc(-c3cnc(C)nc3)cc12` [Compound 354, (1R,3S,5R)-5-(2-azaspiro[3.3]heptan-2-ylmethyl)-2-(2-(3-acetyl-7-(fluoromethyl)-5-(2-methylpyrimidin-5-yl)-1H-indazol-1-yl)acetyl)-N-(6-bromo-3-methylpyridin-2-yl)-2-azabicyclo[3.1.0]hexane-3-carboxamide], for which the pIC50 is above 6.00.

In the case of `CC(=O)c1nn(CC(=O)N2[C@H](C(=O)Nc3nc(Br)ccc3C)C[C@@]3(CN4CC(C)(C)C4)C[C@@H]23)c2c(CF)cc(-c3cnc(C)nc3)cc12` [Compound 355, (1R,3S,5R)-2-(2-(3-acetyl-7-(fluoromethyl)-5-(2-methylpyrimidin-5-yl)-1H-indazol-1 yl)acetyl)-N-(6-bromo-3-methylpyridin-2-yl)-5-((3,3-dimethylazetidin-1-yl)methyl)-2-azabicyclo[3.1.0]hexane-3-carboxamide], the pIC50 was above 6.00.

Regarding `CC(=O)c1nn(CC(=O)N2[C@H](C(=O)Nc3nc(Br)ccc3CN3CCn4c(nnc4C(F)(F)F)C3)C[C@@]3(C)C[C@@H]23)c2ccc(-c3cnc(C)nc3)cc12` [Compound 357, (1R,3S,5R)-2-(2-(3-acetyl-5-(2-methylpyrimidin-5-yl)-1H-indazol-1-yl)acetyl)-N-(6-bromo-3-((3-(trifluoromethyl)-5,6-dihydro-[1,2,4]triazolo[4,3-a]pyrazin-7(8H)-yl)methyl)pyridin-2-yl)-5-methyl-2-azabicyclo[3.1.0]hexane-3-carboxamide], the pIC50 was above 6.00.

Still in this experiment, the particulars now being: Table 8; Factor D 80 nM, substrate Z-L-Lys-SBz; read-out: IC50.
On to `CC(=O)c1nn(CC(=O)N2[C@H](C(=O)Nc3nc(Br)ccc3C)C[C@@]3(CN(C)C)C[C@@H]23)c2c(C(F)(F)F)cc(-c3cnc(C)nc3)cc12` [Compound 318, (1R,3S,5R)-2-(2-(3-acetyl-5-(2-methylpyrimidin-5-yl)-7-(trifluoromethyl)-1H-indazol-1-yl)acetyl)-N-(6-bromo-3-methylpyridin-2-yl)-5-((dimethylamino)methyl)-2-azabicyclo[3.1.0]hexane-3-carboxamide], for which the pIC50 is above 6.00.

For `COC(=O)CCCCCCCCCCCCCCCCC(=O)N[C@@H](CCC(=O)NCCOCCOCC(=O)NCCOCCOCC(=O)NCc1ncc(-c2ccc3c(c2)c(C(C)=O)nn3CC(=O)N2[C@H](C(=O)Nc3nc(Br)ccc3C)C[C@@]3(C)C[C@@H]23)cn1)C(=O)OC` [Compound 329], the pIC50 is above 6.00.

Turning to `C=CCCCCCCc1cc(-c2cnc(C)nc2)cc2c(C(C)=O)nn(CC(=O)N3[C@H](C(=O)Nc4nc(Br)ccc4CC=C)C[C@@]4(C)C[C@@H]34)c12` [Compound 343, (1R,3S,5R)-2-(2-(3-acetyl-5-(2-methylpyrimidin-5-yl)-7-(oct-7-en-l-yl)-1H-indazol-1-yl)acetyl)-N-(3-allyl-6-bromopyridin-2-yl)-5-methyl-2-azabicyclo[3.1.0]hexane-3-carboxamide], the pIC50 is above 6.00.
